Reference: patent US20230374025A1, “FGFR INHIBITOR COMPOUND AND USE THEREOF” (SHENZHEN KANGSU PHARMACEUTICAL TECHNOLOGY CO., LTD., priority 2021, published 2023)

Tests used:
Format in all cases: biochemical
[1] = biological target: T1, FGFR1 V561M (Homo sapiens, UniProt P11362, V561M); experiment: Assay I: inhibitory activity against FGFR mutants (HTRF KinEASE-TK); conditions: ATP 5 μM, substrate TK 1 μM
T1 construct: purchased Signalchem F04-13G
Description: (§1) Assay I: Determination of Inhibitory Activity Against FGFR Mutants
(§2) 1. Reagents and Equipment
(§3) 2.1 Preparation of 1× Kinase Reaction Buffer:
(§4) 1× Kinase reaction buffer was formulated with 1× volume of 5× kinase reaction buffer and 4× volume of water; 5 mM MgCl2; and 1 mM DTT.
(§5) 2.3 Screening of Compounds:
(§6) 1. Diluting a compound 4-fold in a dilution plate with DMSO, with a starting compound concentration of 2 mM.
(§7) 2. Diluting the compound 40-fold into 1× kinase reaction buffer and shaking it on a shaker for 20 minutes.
(§8) 5. Adding 1 μl of the compound diluted in buffer to each well, sealing the plate with a sealing membrane and centrifuging the plate at 1000 g for 30 seconds and leaving it at room temperature for 10 minutes.
(§9) 6. Formulating 2.5×TK-substrate-biotin and ATP mixture with 1× enzyme reaction buffer and adding 2 μl of K-substrate-biotin/ATP mixture to the reaction plate.
(§10) 7. Sealing the plate with a sealing membrane and centrifuging the plate at 1000 g for 30 seconds and allowing it to react at room temperature for 50 minutes.
(§11) 8. Formulating 4× Sa-XL 665 (250 nM) with HTRF assay buffer.
(§12) 9. Adding 5 μl Sa-XL 665 and 5 μl TK-Antibody-Cryptate to each well, centrifuging it at 1000 g for 30 seconds, and allowing it to react for 1 hour at room temperature.
(§13) 10. Reading fluorescence signals at 615 nm (Cryptate) and 665 nm (XL665) with Biotek.
(§14) 3.1 Calculation of the ratio for each well: the ratio was calculated as 665/615 nm.
(§15) 3.3 Calculation of IC50 and plotting of inhibition curves for the compounds.
(§16) The IC50 (half inhibition concentration) of a compound was obtained using the following non-linear fitting equation, wherein data analysis was performed using Graphpad 6.0 software.
(§17) Y=Bottom+(Top−Bottom)/(1+10^((Log IC50−X)*Hill Slope)) • X: log value of compound concentration; and Y: inhibition rate (% inh)
(§18) 3.4 Validation of Results
(§19) Data were exported from Envision and analyzed manually. The ratios were converted to inhibition rates and IC50 was calculated by Prism GraphPad 6.0 from the inhibition rates. IC50 was calculated again by the ratios to verify accuracy of the results.

[2] = biological target: T2, FGFR2 V564F (Homo sapiens, UniProt P21802, V564F); experiment: as above; conditions: ATP 10 μM, substrate TK 1 μM
T2 construct: purchased Signalchem F05-12FG
T2 sequence (P21802 22-821 V564F): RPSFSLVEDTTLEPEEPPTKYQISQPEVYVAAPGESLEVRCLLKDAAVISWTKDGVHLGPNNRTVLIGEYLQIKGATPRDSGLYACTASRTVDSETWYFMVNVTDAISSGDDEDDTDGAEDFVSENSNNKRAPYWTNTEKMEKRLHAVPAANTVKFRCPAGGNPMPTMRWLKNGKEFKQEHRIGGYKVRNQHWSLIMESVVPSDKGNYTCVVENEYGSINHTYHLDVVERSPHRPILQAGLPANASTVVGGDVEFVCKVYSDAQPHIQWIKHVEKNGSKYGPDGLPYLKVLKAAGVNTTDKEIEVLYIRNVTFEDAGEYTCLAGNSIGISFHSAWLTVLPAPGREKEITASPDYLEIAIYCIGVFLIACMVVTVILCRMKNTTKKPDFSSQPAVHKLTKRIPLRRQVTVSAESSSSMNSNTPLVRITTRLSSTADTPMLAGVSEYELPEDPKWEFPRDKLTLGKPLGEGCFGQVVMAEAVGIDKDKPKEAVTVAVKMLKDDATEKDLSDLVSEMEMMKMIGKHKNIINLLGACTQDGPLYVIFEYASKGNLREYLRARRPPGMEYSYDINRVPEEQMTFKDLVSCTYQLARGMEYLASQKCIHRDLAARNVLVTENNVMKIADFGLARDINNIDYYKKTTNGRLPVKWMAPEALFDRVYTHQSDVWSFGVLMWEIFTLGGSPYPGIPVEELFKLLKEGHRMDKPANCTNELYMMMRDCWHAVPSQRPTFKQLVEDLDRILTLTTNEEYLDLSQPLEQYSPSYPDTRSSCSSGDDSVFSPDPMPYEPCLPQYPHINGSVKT
Description: as §1, §2, §3, §4, §5, §6, §7, §8, §9, §10, §11, §12, §13, §14, §15, §16, §17, §18, §19

[3] = biological target: T3, FGFR3 V555M (Homo sapiens, UniProt P22607, V555M); experiment: as above; conditions: ATP 20 μM, substrate TK 1 μM
T3 construct: purchased Signalchem F06-12GG
T3 sequence (P22607 397-806 V555M limits assumed): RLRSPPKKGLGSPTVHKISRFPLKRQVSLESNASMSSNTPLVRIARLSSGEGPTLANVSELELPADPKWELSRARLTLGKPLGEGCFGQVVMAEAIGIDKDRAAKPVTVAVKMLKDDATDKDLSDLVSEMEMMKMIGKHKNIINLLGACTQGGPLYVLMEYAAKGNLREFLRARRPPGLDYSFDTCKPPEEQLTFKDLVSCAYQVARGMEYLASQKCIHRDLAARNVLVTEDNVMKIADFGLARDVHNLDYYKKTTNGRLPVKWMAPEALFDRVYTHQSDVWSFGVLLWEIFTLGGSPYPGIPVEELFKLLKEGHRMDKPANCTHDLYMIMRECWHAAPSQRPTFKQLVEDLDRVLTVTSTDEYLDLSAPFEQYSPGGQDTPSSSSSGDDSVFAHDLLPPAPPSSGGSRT
Description: as §1, §2, §3, §4, §5, §6, §7, §8, §9, §10, §11, §12, §13, §14, §15, §16, §17, §18, §19

[4] = biological target: T4, VEGFR2 (Homo sapiens, UniProt P35968); experiment: Assay I: VEGFR2 kinase inhibition (HTRF KinEASE-TK); conditions: ATP 5 μM, substrate TK 1 μM
T4 construct: purchased Carna 08-191
T4 sequence (P35968 20-1356): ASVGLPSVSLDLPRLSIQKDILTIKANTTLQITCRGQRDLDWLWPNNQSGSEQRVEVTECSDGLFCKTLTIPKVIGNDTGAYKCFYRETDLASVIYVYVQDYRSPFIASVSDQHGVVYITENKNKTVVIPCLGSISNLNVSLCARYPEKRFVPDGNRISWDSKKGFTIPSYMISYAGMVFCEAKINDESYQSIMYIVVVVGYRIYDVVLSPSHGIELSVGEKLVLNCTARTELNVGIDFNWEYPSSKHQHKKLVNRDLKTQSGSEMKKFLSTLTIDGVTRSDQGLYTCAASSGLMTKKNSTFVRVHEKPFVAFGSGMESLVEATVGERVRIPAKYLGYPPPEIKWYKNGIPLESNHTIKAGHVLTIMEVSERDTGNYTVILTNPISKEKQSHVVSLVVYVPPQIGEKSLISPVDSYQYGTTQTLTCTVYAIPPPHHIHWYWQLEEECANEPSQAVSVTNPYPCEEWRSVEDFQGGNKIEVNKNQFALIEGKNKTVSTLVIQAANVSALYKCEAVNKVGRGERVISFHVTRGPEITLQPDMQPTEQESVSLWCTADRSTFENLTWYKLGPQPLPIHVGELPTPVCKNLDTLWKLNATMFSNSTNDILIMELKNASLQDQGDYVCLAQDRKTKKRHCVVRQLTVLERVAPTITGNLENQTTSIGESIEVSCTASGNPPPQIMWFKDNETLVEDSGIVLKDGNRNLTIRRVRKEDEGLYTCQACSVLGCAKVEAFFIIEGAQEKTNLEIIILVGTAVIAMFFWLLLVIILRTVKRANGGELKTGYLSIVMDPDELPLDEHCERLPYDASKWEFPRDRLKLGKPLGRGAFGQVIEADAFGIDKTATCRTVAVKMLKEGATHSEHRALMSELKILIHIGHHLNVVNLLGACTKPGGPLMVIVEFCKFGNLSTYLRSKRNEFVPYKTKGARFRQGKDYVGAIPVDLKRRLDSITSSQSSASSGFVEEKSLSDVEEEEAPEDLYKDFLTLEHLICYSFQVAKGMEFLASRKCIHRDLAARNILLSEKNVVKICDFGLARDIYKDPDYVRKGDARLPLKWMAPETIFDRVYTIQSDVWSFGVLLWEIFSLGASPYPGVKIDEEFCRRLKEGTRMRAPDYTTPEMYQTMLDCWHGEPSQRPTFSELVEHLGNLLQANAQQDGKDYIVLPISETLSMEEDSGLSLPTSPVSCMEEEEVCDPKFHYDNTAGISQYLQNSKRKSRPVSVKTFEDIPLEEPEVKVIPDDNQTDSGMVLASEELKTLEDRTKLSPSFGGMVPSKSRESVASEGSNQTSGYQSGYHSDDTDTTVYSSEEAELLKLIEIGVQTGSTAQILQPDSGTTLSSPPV
Description: as §1, §2, §3, §4, §5, §6, §7
3. Formulating 2×FGFR1 V561M/FGFR2 V564F/FGFR3 K650E/VEGFR2 with 1× of enzyme reaction buffer.
4. Adding 2 μl FGFR1 V561M/FGFR2 V564F/FGFR3 K650E/VEGFR2 kinase (formulated in step 3) to each well of the reaction plate.
as §8, §9, §10, §11, §12, §13, §14, §15, §16, §17, §18, §19
Positive control IC50 was within 3 times of the average value

T1 sequence (P11362 22-822 V561M): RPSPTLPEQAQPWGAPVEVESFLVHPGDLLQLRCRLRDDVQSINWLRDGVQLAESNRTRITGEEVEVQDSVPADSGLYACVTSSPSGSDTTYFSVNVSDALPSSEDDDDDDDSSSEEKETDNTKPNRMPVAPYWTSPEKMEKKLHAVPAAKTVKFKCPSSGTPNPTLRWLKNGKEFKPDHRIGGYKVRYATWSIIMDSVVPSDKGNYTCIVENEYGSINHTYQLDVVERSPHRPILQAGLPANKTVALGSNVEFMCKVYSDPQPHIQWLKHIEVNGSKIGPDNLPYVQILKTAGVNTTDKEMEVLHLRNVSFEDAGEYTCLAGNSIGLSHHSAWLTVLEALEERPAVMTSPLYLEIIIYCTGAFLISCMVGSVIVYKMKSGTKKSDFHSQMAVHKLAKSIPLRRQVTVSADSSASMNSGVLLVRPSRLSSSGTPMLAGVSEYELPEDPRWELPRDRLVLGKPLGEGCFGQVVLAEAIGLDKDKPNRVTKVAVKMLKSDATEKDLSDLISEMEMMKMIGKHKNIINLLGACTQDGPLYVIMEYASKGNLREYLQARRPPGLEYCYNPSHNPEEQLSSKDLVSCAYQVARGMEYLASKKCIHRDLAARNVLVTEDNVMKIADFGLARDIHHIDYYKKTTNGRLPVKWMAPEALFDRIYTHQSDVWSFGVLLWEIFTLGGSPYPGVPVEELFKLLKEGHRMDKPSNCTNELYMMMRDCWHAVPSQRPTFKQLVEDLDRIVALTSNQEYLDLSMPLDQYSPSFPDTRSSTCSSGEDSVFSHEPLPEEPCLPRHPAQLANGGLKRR

Structure (SMILES)	IC50 [1]	IC50 [2]	IC50 [3]	IC50 [4]
C[C@@H](Oc1ccc2[nH]nc(-c3nc4c([nH]3)CN(C(=O)CN3CCCC3)C4)c2c1)c1c(Cl)cncc1Cl [Compound 40, (R)-1-(2-(5-(1-(3,5-dichloropyridin-4-yl)ethoxy)-1H-indazol-3-yl)-4,6-dihydropyrrolo[3,4-d]imidazol-5(1H)-yl)-2-(pyrrolidin-1-yl)ethan-1-one]	0.39 nM	0.32 nM	0.26 nM	4.7 nM
COC(=O)N1Cc2nc(-c3n[nH]c4ccc(OC(C)c5c(Cl)cncc5Cl)cc34)[nH]c2C1 (stereo not shown) [Compound 17, Methyl 2-(5-(1-(3,5-dichloropyridin-4-yl)ethoxy)-1H-indazol-3-yl)-4,6-dihydropyrrolo[3,4-d]imidazole-5(1H)-carboxylate]	1.2 nM	0.74 nM	0.21 nM	49 nM
CC(Oc1ccc2[nH]nc(-c3nc4c([nH]3)CN(C3CCN(C)CC3)CC4)c2c1)c1c(Cl)cncc1Cl (stereo not shown) [Compound 4, 2-(5-(1-(3,5-dichloropyridin-4-yl)ethoxy)-1H-indazol-3-yl)-5-(1-methylpiperidin-4-yl)-4,5,6,7-tetrahydro-3H-imidazo[4,5-c]pyridine]	0.31 nM	0.19 nM	0.16 nM	17.6 nM
C[C@@H](Oc1ccc2[nH]nc(-c3nc4c([nH]3)CN(C(=O)CN3CCC(F)C3)C4)c2c1)c1c(Cl)cncc1Cl (stereo partly drawn) [Compound 48, 1-(2-(5-((R)-1-(3,5-Dichloropyridin-4-yl)ethoxy)-1H-indazol-3-yl)-4,6-dihydropyrrolo[3,4-d]imidazol-5(1H)-yl)-2-(3-fluoropyrrolidin-1-yl)ethan-1-one]	–	0.084 nM	0.33 nM	11.1 nM
C[C@@H](Oc1ccc2[nH]nc(-c3nc4c([nH]3)CN(C3CCN(C)C3)C4)c2c1)c1c(Cl)cncc1Cl (stereo partly drawn) [Compound 36, 5-((R)-1-(3,5-Dichloropyridin-4-yl)ethoxy)-3-(5-(1-methylpyrrolidin-3-yl)-1,4,5,6-tetrahydropyrrolo[3,4-d]imidazol-2-yl)-1H-indazole]	1.9 nM	0.61 nM	0.31 nM	27.5 nM
C[C@@H](Oc1ccc2[nH]nc(-c3nc4c([nH]3)CN(C(=O)CN3CC(F)C3)C4)c2c1)c1c(Cl)cncc1Cl [Compound 53, (R)-1-(2-(5-(1-(3,5-dichloropyridin-4-yl)ethoxy)-1H-indazol-3-yl)-4,6-dihydropyrrolo[3,4-d]imidazol-5(1H)-yl)-2-(3-fluoroazetidin-1-yl)ethan-1-one]	6.4 nM	0.82 nM	1.9 nM	45.5 nM
CC(Oc1ccc2[nH]nc(-c3nc4c([nH]3)CN(S(=O)(=O)c3ccn(C)n3)C4)c2c1)c1c(Cl)cncc1Cl (stereo not shown) [Compound 20, 5-(1-(3,5-dichloropyridin-4-yl)ethoxy)-3-(5-((1-methyl-1H-pyrazol-3-yl)sulfonyl)-1,4,5,6-tetrahydropyrrolo[3,4-d]imidazol-2-yl)-1H-indazole]	1.8 nM	1.7 nM	–	13.3 nM
CC(Oc1ccc2[nH]nc(-c3nc4c([nH]3)CN(S(=O)(=O)c3cnn(C)c3)C4)c2c1)c1c(Cl)cncc1Cl (stereo not shown) [Compound 18, 5-(1-(3,5-dichloropyridin-4-yl)ethoxy)-3-(5-((1-methyl-1H-pyrazol-4-yl)sulfonyl)-1,4,5,6-tetrahydropyrrolo[3,4-d]imidazol-2-yl)-1H-indazole]	2.2 nM	1.2 nM	–	19.6 nM

Now from value to compound:

IC50 [1]	IC50 [2]	IC50 [3]	IC50 [4]	Structure (SMILES)
0.55 nM	0.15 nM	0.11 nM	3.3 nM	C[C@@H](Oc1ccc2[nH]nc(-c3nc4c([nH]3)CN(C(=O)OCCN(C)C)C4)c2c1)c1c(Cl)cncc1Cl [Compound 54, 2-(dimethylamino)ethyl(R)-2-(5-(1-(3,5-dichloropyridin-4-yl)ethoxy)-1H-indazol-3-yl)-4,6-dihydropyrrolo[3,4-d]imidazole-5(1H)-carboxylate]
0.38 nM	0.11 nM	0.12 nM	3.1 nM	CC(Oc1ccc2[nH]nc(-c3nc4c([nH]3)CN(C(=O)C3CCN(C)CC3)C4)c2c1)c1c(Cl)cncc1Cl (stereo not shown) [Compound 6, (2-(5-(1-(3,5-dichloropyridin-4-yl)ethoxy)-1H-indazol-3-yl)-4,6-dihydropyrrolo[3,4-d]imidazol-5(1H)-yl)(1-methylpiperidin-4-yl)ketone]
1.2 nM	0.48 nM	1.3 nM	85 nM	CCOC(=O)N1Cc2nc(-c3n[nH]c4ccc(OC(C)c5c(Cl)cncc5Cl)cc34)[nH]c2C1 (stereo not shown) [Compound 23, Ethyl 2-(5-(1-(3,5-dichloropyridin-4-yl)ethoxy)-1H-indazol-3-yl)-4,6-dihydropyrrolo[3,4-d]imidazole-5(1H)-carboxylate]
5.1 nM	0.34 nM	0.87 nM	13.4 nM	C[C@@H](Oc1ccc2[nH]nc(-c3nc4c([nH]3)CN(C(=O)OC3CCN(C)C3)C4)c2c1)c1c(Cl)cncc1Cl (stereo partly drawn) [Compound 55, 1-Methylpyrrolidin-3-yl 2-(5-((R)-1-(3,5-dichloropyridin-4-yl)ethoxy)-1H-indazol-3-yl)-4,6-dihydropyrrolo[3,4-d]imidazole-5(1H)-carboxylate]
0.65 nM	0.25 nM	0.67 nM	5.4 nM	CC(Oc1ccc2[nH]nc(-c3nc4c([nH]3)CN(C3CCN(C)CC3)C4)c2c1)c1c(Cl)cncc1Cl (stereo not shown) [Compound 3, 5-(1-(3,5-dichloropyridin-4-yl)ethoxy)-3-(5-(1-methylpiperidin-4-yl)-1,4,5,6-tetrahydropyrrolo[3,4-d]imidazol-2-yl)-1H-indazole]
0.26 nM	0.13 nM	0.35 nM	3.3 nM	C[C@@H](Oc1ccc2[nH]nc(-c3nc4c([nH]3)CN(C(=O)CN(C)C)C4)c2c1)c1c(Cl)cncc1Cl [Compound 43, (R)-1-(2-(5-(1-(3,5-dichloropyridin-4-yl)ethoxy)-1H-indazol-3-yl)-4,6-dihydropyrrolo[3,4-d]imidazol-5(1H)-yl)-2-(dimethylamino)ethan-1-one]
1.2 nM	0.29 nM	0.21 nM	14.2 nM	CC(Oc1ccc2[nH]nc(-c3nc4c([nH]3)CN(CCN3CCOCC3)C4)c2c1)c1c(Cl)cncc1Cl (stereo not shown) [Compound 12]
–	1.3 nM	1.4 nM	60.5 nM	C[C@@H](Oc1ccc2[nH]nc(-c3nc4c([nH]3)CN(C3CCN(S(C)(=O)=O)C3)C4)c2c1)c1c(Cl)cncc1Cl (stereo partly drawn) [Compound 39, 5-((R)-1-(3,5-Dichloropyridin-4-yl)ethoxy)-3-(5-(1-(methylsulfonyl)pyrrolidin-3-yl)-1,4,5,6-tetrahydropyrrolo[3,4-d]imidazol-2-yl)-1H-indazole]
–	–	–	99 nM	CCN1CCN(c2ccc(Nc3cc(N(C)C(=O)Nc4c(Cl)c(OC)cc(OC)c4Cl)ncn3)cc2)CC1 [Infigratinib, reference compound]
–	0.017 nM	0.19 nM	6.7 nM	C[C@@H](Oc1ccc2[nH]nc(-c3nc4c([nH]3)CN(C(=O)CN3CCC(C#N)C3)C4)c2c1)c1c(Cl)cncc1Cl (stereo partly drawn) [Compound 49, 1-(2-(2-(5-((R)-1-(3,5-dichloropyridin-4-yl)ethoxy)-1H-indazol-3-yl)-4,6-dihydropyrrolo[3,4-d]imidazol-5(1H)-yl)-2-oxoethyl)pyrrolidine-3-carbonitrile]
